# Source: US20050154033A1, “Methods of using zonisamide as an adjunctive therapy for partial seizures” (Eisai Co., Ltd, priority 2004, published 2005)
# Tests used:
# carbonic anhydrase = settings: relative to acetazolamide; cited from earlier work
# [1] = upon reaching a stable dose or following dosage adjustment; cited from earlier work
# sodium channels = settings: in vitro; cited from earlier work
# [2] = tested on: GABA/benzodiazepine receptor ionophore complex; settings: in vitro; does not produce changes in chloride flux; cited from earlier work
# [3] = tested on: cultured mouse spinal cord neurons; settings: 10-30 μg/mL, cited from earlier work
# [4] = set-up: species or system patients (human); settings: human, in vivo
# From the text: The pharmacovigilance data that were collected, reviewed and analyzed provided the following information in respect of the incidence of NMS. To date, a total of 3 cases (two adult and one pediatric) fulfill the criteria of potential neuroleptic malignant syndrome. These cases were reviewed in detail for evaluation of possible safety signals. They were all deemed serious, and in all cases, the patients recovered with appropriate treatment.
# Cases ZONI000813 and ZONI000929 are adult cases from Japan. In both cases the patients carried a diagnosis of Parkinson's disease (PD) and were enrolled in a double blind, placebo controlled […] study of zonisamide as a potential treatment for PD (Protocol AD810N-202-1). […]
# Estimates of exposure, based upon retail and mail order prescriptions, indicate that the number of unique patients taking zonisamide capsules in the U.S. is about 37,276 (total prescriptions per year/average number of prescriptions per patient per year less a calculated percentage decrease based on estimated annual dropouts) in the time between approval in 2000 and December 2002 . […] Similarly, the incidences of NMS estimated herein are unlikely to be higher than calculated. Based on the exposure data and number of NMS cases, the incidence of NMS in the U.S. and Japan is calculated to be about 1:37,276 unique patients and 1:592,588 unique patients, respectively.
# rat hippocampal slices = settings: 10-30 μg/mL; cited from earlier work
# T-type Ca^2+ currents = settings: in vitro; cited from earlier work
# [5] = tested on: dopaminergic and serotonergic neurotransmission; settings: in vivo microdialysis; cited from earlier work
smiles,measurement,setting,value
"NS(=O)(=O)Cc1noc2ccccc12 [zonisamide, 1,2-benzisoxazole-3-methanesulfonamide]",carbonic anhydrase inhibition compared to acetazolamide,carbonic anhydrase,1/50
same,time required to achieve steady-state levels,[1],up to two weeks
same,effect on sodium channels,sodium channels,blocks sodium channels
same,binding to GABA/benzodiazepine receptor ionophore complex,[2],binds to the GABA/benzodiazepine receptor ionophore complex in an allosteric fashion
same,postsynaptic GABA or glutamate responses,[3]; cultured mouse spinal cord neurons,without affecting
same,synaptically-driven electrical activity,[3],suppresses synaptically-driven electrical activity
same,cases fulfilling the criteria of potential neuroleptic malignant syndrome,[4],3 cases
same,incidence of NMS,[4],"about 1:37,276 unique patients"
same,neuronal or glial uptake of [3H]-GABA,rat hippocampal slices,without affecting
same,effect on T-type Ca2+ currents,T-type Ca^2+ currents,"reduces voltage-dependent, transient inward currents"
same,effect on neurotransmission,[5],facilitates both dopaminergic and serotonergic neurotransmission
